# Key:
# Assay type in all cases: cell-based, human
# [1] = tested on: 1:1 mix of normal MNC and CML blast crisis cells; test: Morphology (Giemsa staining) of cells from residual colonies
# Description: (§1) Normal bone marrow mononuclear cells (MNC) were obtained by aspiration from consenting volunteers and enriched for hematopoietic progenitors as previously reported by numerous investigators (Zamecnick et al., Proc. Natl. Acad. Sci. U.S.A. 83, 4143-4147 (1986); Caracciolo et al., J. Clin. Invest. 85, 55-61 (1990)). In brief, marrow cells were subjected to Ficoll-Hypaque density gradient sedimentation and then depleted of adherent monocyte-macrophage and T-lymphocytes by adherence to plastic Petri dishes and rosetting with neuraminidase-treated sheep red blood cells, respectively. Philadelphia chromosome-positive blast cells were isolated by Ficoll-Hypaque density gradient sedimentation from a CML patient in blast crisis (L-6 type junction). […] The residual non-blast cells had the morphological appearance of small lymphocytes. 25,000 MNC and 25,000 CML blast cells were combined and incubated with bcr-abl breakpoint-Specific antisense oligomer (SEQ ID NO:3) (40 μg/ml at h 0; 20 μg/ml 18 hours later) or with a 4 nucleotide mismatch bcr-abl antisense oligomer (SEQ ID NO:2) (40 μg/ml at 0 h; 20 μg/ml 18 hours later) or left untreated. […] At the end of the incubation period colonies were counted. […]
# [2] = tested on: normal hematopoietic progenitor cells (normal bone marrow MNC); test: CFU-GM colony formation of normal hematopoietic progenitor cells; details: Table 3; 40 μg/ml at 0 h, 20 μg/ml 18 h later; 12 days; mean ± SD; control 263 ± 10
# Description: as §1
# [3] = tested on: Philadelphia chromosome-positive blast cells of CML patients in blast crisis, L-6 (b2a2) type junction; test: Colony formation of CML blast crisis patient cells expressing the b2a2 (L-6) junction; details: 10 days in semi-solid culture (FIG. 2)
# Procedure: Leukemia cells were obtained from the marrow of the posterior iliac crest of five CML patients in blast crisis. The cells were diluted 1:2 in Iscove's modified Dulbecco medium (IMDM) to form a cell suspension. Philadelphia chromosome-positive blast cells were isolated by Ficoll-Hypaque density gradient sedimentation to remove non-mononuclear cells. Accordingly, the bone marrow cell suspension was gently overlayed on a Histopaque density gradient (Sigma Chemical Co., St. Louis, Mo.) in a 2:1 ratio, and then spun down for 30 min. at 1500 rpm and 18° C. Cells remaining in the interface layer after centrifugation were collected using a Pasteur pipet, and washed with IMDM at 1000 rpm and […] for 10 min.
# Cells plated into methyl cellulose semisolid media after 7-11 days of culture were recovered from the medium. Total RNA was isolated according to the procedure of Chomczynski et al, Anal. Biochem. 162, 156-159 (1987). The RNA ([…]) isolated from one patient having particularly exuberant cell growth was annealed with the 3' RT-PCR primer GCTTCACACC ATTCCCCATTGT (SEQ ID NO:10) complementary to 22 nucleotides of c-abl exon 2 for 30 minutes at 37° C. Following annealing of the 3' primer, the RNA was reverse transcribed with 500 units of Moloney murine leukemia virus reverse transcriptase at 37° C. for 1 hour. The reaction was stopped and the mixture diluted in 1 x Thermus aquaticus (Taq) polymerase buffer. A 5' primer, the 22 nucleotide oligomer CACAGCATTCCGCTGACCATCA (SEQ ID NO: 11) complementary to bcr exon 2 and additional c-abl exon 2 3' primer were added to a final concentration of 2 ng/μl each with 2.5 units of Taq polymerase for amplification of the cDNA fragments. Sixty cycles of PCR were performed in a Perkin Elmer Thermal Cycler by annealing at 55° C., synthesizing at 72° C. and denaturing at 95° C. The amplification product, corresponding to the b2a2 junction, was thereafter separated on a 2% agarose gel. The band containing the bcr-abl fragment was cut out and cleaned according to a standard technique utilizing a GENE-CLEAN™ kit (Bio 101, Inc.), cloned by blunt end ligation in the BLUESCRIPT SK vector (Stratagene Cloning Systems) linearized by SMA I digestion. Several individual clones were then sequenced using the SEQUENASE™ version 2.0 enzyme (United States Biochemical Corp., Cleveland, Ohio), according to the sequence protocol recommended by the manufacturer. Accordingly, the denatured bcr-abl DNA fragments were annealed with specific primers which flank the cloning site in the BLUESCRIPT SK vector, in the presence of SEQUENASE™ reaction buffer for 15 min. at 37° C. The primer-annealed fragments were incubated at room temperature with SEQUENASE™ version 2.0 enzyme and α-S^35 dAT at 37° C. Subsequently, labelled template-primer complexes were transferred to tubes containing A, T, C and G nucleotides (one nucleotide per tube) and incubated 5-30 min. at 37° C. The samples were then loaded on a previously prepared acrylamide gel, and run for approximately 10 hours. The sequencing gel was dryed, and the film exposed O/N. Sequence analysis of several of the individual clones identified the bcr-abl junction as having the cDNA sequence shown in FIG. 1 (SEQ ID NO:1). The arrow in the figure indicates the bcr-abl breakpoint junction, and the box delineates the 18 nucleotides corresponding to the junction, which forms a preferred target sequence for hybridization of antisense oligomer. The junction corresponds precisely to the L-6 type breakpoint reported by Shtivelman et al., Cell 47, 277 (1986), in which the bcr exon 2 is fused to c-abl exon 2.
# In a similar manner, L-6 type junctions were identified in the remaining CML blast crisis patients by hybridization of RT-PCR amplification products derived from blast crisis CML RNA using a synthetic 18-mer GAAGGGCTTC TTCCTTAT (SEQ ID NO:3) specific for the 18-nucleotide target sequence of the L-6 bcr-abl junction. […]
# [4] = tested on: CML blast crisis cells (L-6 type junction); test: CFU-L colony formation of CML blast crisis cells (Example 3); details: Table 3; 40 μg/ml at 0 h, 20 μg/ml 18 h later; 12 days; mean ± SD; control 806 ± 70
# Description: Normal bone marrow mononuclear cells (MNC) were obtained by aspiration from consenting volunteers and enriched for hematopoietic progenitors as previously reported by numerous investigators (Zamecnick et al., Proc. Natl. Acad. Sci. U.S.A. 83, 4143-4147 (1986); Caracciolo et al., J. Clin. Invest. 85, 55-61 (1990)). In brief, marrow cells were subjected to Ficoll-Hypaque density gradient sedimentation and then depleted of adherent monocyte-macrophage and T-lymphocytes by adherence to plastic Petri dishes and rosetting with neuraminidase-treated sheep red blood cells, respectively. Philadelphia chromosome-positive blast cells were isolated by Ficoll-Hypaque density gradient sedimentation from a CML patient in blast crisis (L-6 type junction). […] The residual non-blast cells had the morphological appearance of small lymphocytes. 25,000 MNC and 25,000 CML blast cells were combined and incubated with bcr-abl breakpoint-Specific antisense oligomer (SEQ ID NO:3) (40 μg/ml at h 0; 20 μg/ml 18 hours later) or with a 4 nucleotide mismatch bcr-abl antisense oligomer (SEQ ID NO:2) (40 μg/ml at 0 h; 20 μg/ml 18 hours later) or left untreated. Four hours after the second addition of oligonucleotides to the cultures, cells were seeded into duplicate methylcellulose dishes containing IL-3 (20 U/ml) and GM-CSF (5 ng/ml) and allowed to grow for an additional 12 days. At the end of the incubation period colonies were counted.
# The data is shown in Table 3, below, wherein values represent mean ± standard deviation of duplicate control cultures (no oligonucleotide added) and duplicate experimental cultures from two separate experiments. Colony forming unit-granulocyte macrophage (CFU-GM)-derived colonies consisted of 50 or more cell aggregates, while CFU-GM-derived clusters were defined as aggregates of between 4 and 40 cells. These are normal hematopoietic colonies derived from progenitors with the capability to differentiate along the granulocytic and macrophage lineages. […]
# [5] = tested on: 1:1 mixtures of normal marrow progenitors and CML blast crisis cells; test: CFU-GM + CFU-L colony formation of 1:1 mixtures of normal marrow progenitors and CML blast crisis cells; details: Table 3; 1:1 mixture; 40 μg/ml at 0 h, 20 μg/ml 18 h later; 12 days; mean ± SD; control 978 ± 24
# Description: as §1
substance,measurement,setting,value
SEQ ID NO:2: mismatched (4 nucleotide substitutions) bcr-abl antisense oligomer GAACGGCATC TACGTTAT (antisense GAACGGCATCTACGTTAT; further chemistry not given here) [reference compound],morphology of cells isolated from residual colonies,[1],heterogeneous and consisted of blast cells and a variety of differentiating elements
same,"Colonies or Clusters, CFU-GM",[2],265 ± 6 colonies or clusters
same,colonies of blast cells formed,[3],formed numerous colonies of blast cells
same,"Colonies or Clusters, CFU-L (colonies formed from CML blast crisis cells)",[4],786 ± 23 colonies or clusters
same,"Colonies or Clusters, CFU-GM + CFU-L",[5],900 ± 46 colonies or clusters
